According to patent US5770623A, “Argine antagonists for inhibition of systemic hypotension associated with nitric oxide production or endothelial derived relaxing factor” (Board of Regents, The University of Texas System, priority 1995, dated 1998):
Entries after “also recorded” stand apart in the source; their conditions may differ. Read-outs that look alike come from different tables or passages of the source.

Columns and labels:
[1] = system: human internal mammary artery; test: ACh-induced relaxation of human internal mammary artery; conditions: for effect on ACh-induced vasorelaxation: NE-preconstricted, FIG. 11
Source text: (§1) FIG. 11 contains representative physiograph tracings which depict ACh-induced relaxation of NE-preconstricted rings prepared from rabbit aorta (upper panel) and human internal mammary artery (lower panel).

[2] = system: murine endothelial cells exposed to Gamma-Interferon and TNF (nitric oxide production); test: Inhibition of nitrite production by MBEC exposed to IFN (100 U/ml) and TNF (500 U/ml); type: cell-based; conditions: for IC50: Mus musculus, Endothelial cell
Experimental: Endothelial cells--MBEC's were isolated from murine brain microvessels and cultured on gelatin-coated tissue culture dishes in DME/F12 media supplemented with 2% PPPHS, 5% FBS (Hyolone), 50 μg/ml ECGF (Biomed Tech), and 10 U/ml heparin (Sigma) as previously described (Belloni et al. 1989). The endothelial derivation of MBEC's was determined by the presence of a non-thrombogenic surface to platelets and immunofluorescent staining for Factor VIII related antigen. MBEC's were used between passage 6-9 for all experiments.
Nitrite Assay--MBE cells were cultured on gelatin-coated well plates (Corning) in 100 μl of culture medium and treated with cytokines at 3 days post-confluence. After 48 hours, nitrite production was determined by a colorimetric assay. […] All treatments were performed in triplicate and data presented as the mean value±standard deviation. […]
production by murine endothelial cells exposed to GammaInterferon (100
U/ml) and TNF (500 U/ml) in vitro.

[3] = system: isolated guinea pig heart; test: Histamine-induced nitrite release and coronary flow in isolated perfused guinea pig heart; conditions: for effect on coronary flow (vasodilation): histamine-elicited; for effect on EDRF/NO (nitrite) release: histamine-induced, FIG. 13
Experimental: Histamine was administered as a rapid bolus injection into the aorta and net nitrite release during the subsequent 2.5 minutes was determined.

endotoxemic dogs = test: Endotoxin-induced hypotension in dogs (Example 5); type: in vivo, dog
Experimental: Administration of ET to dogs was clearly more toxic and less predictable than TNF administration. […] Within 1.5 minutes the blood pressure increased by 33±2.5 mmHg.

[4] = system: guinea pig pulmonary artery rings; test: Relaxation of preconstricted guinea pig pulmonary artery rings
endotoxin-treated dogs = type: in vivo, dog; parameters: blood pressure after L-arginine / change in SAP after L-arginine: dose or concentration left out as unconfirmed; conditions: for Cardiac Output / Heart Rate / Systemic Arterial Pressure / Systemic Vascular Resistance: Table 1, Study 1: Endotoxin-treated (n = 4)
Experimental: (§2) Animals: Studies were carried out on 12 conditioned mongrel dogs (9 males and 3 females) weighing 22-32 kg (avg=25.3 kg). Animal care was in accordance with the recommendations of the American Association for Accreditation of Laboratory Animal Care, and met all standards prescribed by the Guide for the Care and Use of Laboratory Animals (Guide for the Care and Use of Laboratory Animals (1978) Dept. of Health, Education and Welfare, Washington, D.C. (Publ. No. 78-23). Animal protocols were approved by The University of Texas Animal Welfare Committee. The dogs were fasted overnight prior to the day of experimentation. They were anesthetized with sodium pentobarbital (25 mg/kg I.v.). Dogs were then endotracheally intubated and ventilated with a piston-driven respirator (Harvard instruments) using room air at a tidal volume of 20 ml/kg and at a rate of 10 to 12 breaths per minute, adjusted to achieve a normal arterial pH and pCO2 (Instrumentation Laboratories 1L13012 pH/Blood Gas Analyzer). Catheters were placed percutaneously into the femoral and pulmonary arteries; In the latter, a flow-directed thermal-dilation catheter was used (Abbott Critical Care Systems).
(§3) Physiologic measurements: Mean SAP and heart rate were continuously monitored (Parametron 7048 Monitoring System, Roche) and stored on a magnetic disk using an analog-to-digital converter (Scientific Solutions, Inc.). Cardiac output (CO) was determined as the mean of six measurements by thermal-dilution. Systemic vascular resistance was calculated as (SAP X80)/CO and expressed as […].
(§4) Protocol: After the blood pressure and heart rate stabilized, endotoxin (40 ug/kg, in 10 ml of phosphate-buffered saline (PBS), pH 7.4) was infused i.v. over 2 minutes. This dose of endotoxin typically induces severe and often lethal cardiovascular collapse in the dog. Blood pressure was monitored, and when either SAP fell below 60 mmHg or a stable nadir in systemic arterial pressure (SAP) was maintained for 10 minutes, L-NMA was administered (20 mg/kg in 5 ml of PBS i.v. over 1 min.). In most experiments, L-arginine (400 mg/kg in 20 mi PBS) was administered ten minutes later by i.v. infusion over 2 minutes. In control experiments, dogs without prior exposure to endotoxin received L-NMA alone. To simulate the hypotension observed in dogs receiving endotoxin, one group of dogs received a continuous i.v. infusion of nitroglycerin (2 mg/ml) at a rate adjusted to maintain the SAP at 60-70 mm Hg. Nitroglycerin-treated dogs then received L-NMA (20 mg/kg) and 20 minutes later L-arginine was administered […].

rabbit aortic rings = test: ACh-induced relaxation of isolated rabbit aortic rings; conditions: for effect on ACh-induced vasorelaxation: NE-preconstricted rabbit aorta, FIG. 11
Source text: FIG. 9b compares concentration-response relationships for the same set of mono- and disubstituted arginine analogs as FIG. 9a, plus an additional dimethyl analog with the two methyl groups on different guanidino nitrogens. The test is for inhibition of ACh-induced vasorelaxation in isolated rabbit aortic rings. The points plotted represent means±S.E. of the maximum responses to ACh observed in the presence of the indicated concentrations of analogs (n=4).
Guinea pig pulmonary artery (GP PA), rat and rabbit aorta (Ao), and dog coronary (CA) and femoral artery (FA) were precontracted with NE (1 μM) and relaxed with a single concentration of ACh. Concentration of ACh: GP PA 1 μM, rat Ao […], rabbit Ao 0.3, dog CA […] and […] 0.1 μM. […] The concentrations of L-citrulline (L-cit), D-arginine (D-arg) and L-arginine (L-arg) were all 0.5 mM. Bars are mean values±SEM (n=4-6).
as §1

control dogs = test: L-NMA in control dogs (Example 4); type: in vivo, dog; conditions: for increase in blood pressure (SAP) by L-NMA: control dogs, L-NMA 20 mg/kg, n=4
Experimental: as §2, §3, §4

[5] = system: nitroglycerin-treated dogs; test: Nitroglycerin-induced hypotension in dogs (Example 4); type: in vivo, dog; conditions: for Cardiac Output / Heart Rate / Systemic Arterial Pressure / Systemic Vascular Resistance: Table 1, Study 2: Nitroglycerin-treated (n = 3)
Experimental: as §2, §3, §4
In an additional series of experiments, blood pressure was reduced to 65 mm Hg by continuous i.v. infusion of nitroglycerin, a hypotensive agent that forms NO by an L-arginine and NO synthetase-independent mechanism.

## CNC(=N)NCCC[C@H](N)C(=O)O [NMMA, N^G -methyl-L-arginine]
[1]
  effect on ACh-induced vasorelaxation: attenuate ACh-induced vasorelaxation
[1]; human
  inhibition of EDRF/NO in vascular preparation: arginine reversible inhibitor of EDRF/NO
[2]; MBEC exposed to TNF and IFN
  concentration giving maximal inhibition of nitrite production: 1 mM
  effect of NMMA on nitrite production: inhibited
[2]; 48 h, read-out: ED50% (effective dose that inhibited 50% of the nitrite production), murine endothelial cells, Gamma-Interferon (100 U/ml) and TNF (500 U/ml), in vitro
  IC50: 337 µM
[2]; read-out: E.D. 50% for inhibition of nitrite production, MBEC exposed to TNF and IFN
  IC50: 330 µM
[3]
  effect on coronary flow (vasodilation): attenuated
  effect on EDRF/NO (nitrite) release: inhibition
[3]; listed as L-NMA
  effect on EDRF/NO (nitrite) release: inhibits EDRF/NO release
Endotoxemic dogs; FIG. 24
  blood pressure with readministration of NMMA: maintained
Endotoxemic dogs; NMMA 5 mg/kg after ET 1 μg/kg
  increase in blood pressure by NMMA: 33±2.5 mmHg
  time to blood pressure increase: ≤ 1.5 min
Endotoxemic dogs; lethal shock, 100 μg/ml endotoxin, NMMA 20 mg/kg
  increase in blood pressure by NMMA: 65 mm
[4]; endothelium-dependent vasodilators
  effect on vasodilatation by ACh, LTD4 and HIST: blocks endothelium-dependent relaxation; also recorded: blocks the action of ACh, LTD4 and HIST
[4]; guinea pig pulmonary artery rings, 1 μM NE, ACh
  inhibition of EDRF/NO synthesis: served as inhibitors of EDRF/NO synthesis
[4]; guinea pig pulmonary artery, NMMA 100 μM
  inhibition of EDRF/NO in vascular preparation: arginine reversible inhibitor of EDRF/NO
[4]; sodium nitroprusside, endothelium-independent
  effect on vasodilatation by SNP: does not inhibit
endotoxin-treated dogs; 20 mg/kg L-NMA
  anti-hypotensive effect in endotoxemic dog: rapid and strong anti-hypotensive effect; also recorded: restores blood pressure to normal or near normal values
endotoxin-treated dogs; FIG. 24, 20 mg/kg, within 10 min
  increase in SAP by L-NMA: 73 mm Hg
endotoxin-treated dogs; FIG. 24, first dose of L-NMA
  duration of maintained blood pressure, first dose: 48 min
endotoxin-treated dogs; FIG. 24, for 2 hrs
  SAP maintained after second dose: greater than 100 mm Hg
endotoxin-treated dogs; L-NMA 20 mg/kg i.v.
  time to normalization / reversal of hypotension: ≤ 1.5 min
endotoxin-treated dogs; L-NMA, endotoxin-treated
  increase in SVR by L-NMA: 2060±338 dynes-sec/cm^5
endotoxin-treated dogs
  Cardiac Output: 2.03 ± 0.32 L/min
  Heart Rate: 123.3 ± 4.8 beats/min
  Systemic Arterial Pressure: 107 ± 9.6 mmHg
  Systemic Vascular Resistance: 4462 ± 552 dynes-sec/cm^5
endotoxin-treated dogs; additional dose of L-NMA 20 mg/kg
  duration of normal blood pressure with additional dose: at least 2 hours
endotoxin-treated dogs; endotoxemic dogs, L-NMA 20 mg/kg, n=4
  increase in SAP by L-NMA: 47.8±6.8 mmHg
endotoxin-treated dogs; endotoxin-treated
  HR and CO after L-NMA: unchanged
endotoxin-treated dogs; limited dose response studies, versus 20 mg/kg
  pressor effect of doses greater than 20 mg/kg: do not have a significantly greater pressor effect
endotoxin-treated dogs; single i.v. dose L-NMA 20 mg/kg
  duration of normal blood pressure after single dose: 30 to 60 min
Rabbit aortic rings
  effect on ACh-induced vasorelaxation: attenuate ACh-induced vasorelaxation
Rabbit aortic rings; rabbit aorta, NMMA 100 μM
  inhibition of EDRF/NO in vascular preparation: arginine reversible inhibitor of EDRF/NO
Control dogs; Table 2, control dogs (n = 4)
  Cardiac Output: 2.12 ± 0.26 L/min
  Heart Rate: 82.5 ± 6.1 beats/min
  Systemic Arterial Pressure: 153.8 ± 11.4 mmHg
  Systemic Vascular Resistance: 5967 ± 523 dynes-sec/cm^5
Control dogs; listed as L-NMA
  increase in blood pressure (SAP) by L-NMA: 24.8±2.7 mmHg
Control dogs; listed as N^G -methyl-L-arginine
  increase in blood pressure (SAP) by L-NMA: 24.8±4.7 mmHg
Control dogs; other two control dogs
  increase in SVR: about 1400 dynes-sec/cm^5
Control dogs; two of four control dogs
  decrease in cardiac output: > 1.5 L/min
Control dogs; two of four control dogs with marked decrease of cardiac output
  increase in SVR: ≥ 3500 dynes-sec/cm^5
[5]; L-NMA 20 mg/kg
  HR, CO or SVR after L-NMA: without significant alteration in HR, CO, or SVR
[5]
  Cardiac Output: 3.85 ± 0.8 L/min
  Heart Rate: 191.7 ± 35.0 beats/min
  Systemic Arterial Pressure: 81.8 ± 3.5 mmHg
  Systemic Vascular Resistance: 1851 ± 399 dynes-sec/cm^5
[5]; nitroglycerin infusion, L-NMA 20 mg/kg, n=3
  increase in blood pressure (SAP) by L-NMA: 17.1±5.0 mmHg

## N=C(N)NCCC[C@H](N)C(=O)O [L-arginine, reference compound]
[1]
  effect on ACh-induced vasorelaxation: restores relaxation
[2]; 8 mM L-arginine vs 1 mM NMMA
  reversal of NMMA inhibition of nitrite production: completely reversing the effects of 1 mM NMMA
[2]; MBEC exposed to TNF and IFN
  nitrite concentration upon adding L-arginine back to arginine-free medium: increased in a dose dependent manner
[3]
  effect on coronary flow (vasodilation): restored
  effect on EDRF/NO (nitrite) release: restoration
Endotoxemic dogs; L-arginine 100 mg/kg
  effect of L-arginine after NMMA: fall precipitously below the pre-NMMA level
[4]; excess L-arginine
  effect on relaxation in the presence of NMMA: restored relaxation in the presence of NMMA
endotoxin-treated dogs; 400 mg/kg L-arginine
  effect of L-arginine on L-NMA effect: reversed the effect of L-NMA and restored the endotoxin-induced hypotension
endotoxin-treated dogs; 2 hours after L-NMA dosing, decline
  blood pressure after L-arginine: < 45 mm Hg
endotoxin-treated dogs; FIG. 24, L-arginine
  blood pressure after L-arginine: 43 mm Hg
  change in SAP after L-arginine: -77 mm Hg
endotoxin-treated dogs
  Cardiac Output: 2.31 ± 0.43 L/min
  Heart Rate: 116.7 ± 18.8 beats/min
  Systemic Arterial Pressure: 52.7 ± 8.8 mmHg
  Systemic Vascular Resistance: 1851 ± 171 dynes-sec/cm^5
Rabbit aortic rings
  effect on ACh-induced vasorelaxation: restores relaxation
Control dogs; 400 mg/kg
  effect of L-arginine on pressor effect of L-NMA: fully reversed the pressor effect of L-NMA
[5]
  Cardiac Output: 5.15 ± 1.08 L/min
  Heart Rate: 148.7 ± 19.9 beats/min
  Systemic Arterial Pressure: 56.9 ± 13 mmHg
  Systemic Vascular Resistance: 1088.2 ± 491 dynes-sec/cm^5
